The compounds below were run against T1, hGPR120 (Homo sapiens, UniProt Q5NUL3) (assay: Measurement of activity of GPR120 agonist (cell-based assay), calcium fluorescence). Conditions: CHO-K1 cells expressing Ga16 and hGPR120; Calcium 5 dye fluorescence; activity class.
T1 construct: expressed in transfected cells; host or cells: CHO-K1
T1 sequence (Q5NUL3 1-361): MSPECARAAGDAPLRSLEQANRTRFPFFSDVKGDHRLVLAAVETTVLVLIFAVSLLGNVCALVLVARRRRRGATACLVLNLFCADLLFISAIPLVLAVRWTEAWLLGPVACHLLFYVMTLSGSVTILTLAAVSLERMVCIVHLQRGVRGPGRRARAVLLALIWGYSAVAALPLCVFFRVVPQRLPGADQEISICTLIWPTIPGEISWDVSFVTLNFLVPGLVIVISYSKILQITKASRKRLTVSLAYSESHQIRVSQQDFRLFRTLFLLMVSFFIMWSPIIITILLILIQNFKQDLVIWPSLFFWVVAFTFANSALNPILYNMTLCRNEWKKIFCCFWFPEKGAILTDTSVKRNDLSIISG
Procedure, shortened: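 CHO-K1 cells co-expressing Gα16 and hGPR120, loaded with Calcium 5 dye for 1 h at 37° C, received serially diluted agonists (final 0.5% DMSO). Fluorescence (Ex 485/Em 525 nm) was expressed as relative percent over 0.1% DMSO-only wells; activity binned as A >20 μM, B 20–2 μM, C 2–0.2 μM, D <0.2 μM.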

EC50 [µM]	SMILES
0.2 to 2	O=C(O)CCc1ccc(OCc2cccnc2SCC2CC2)cc1F [Example 178]
0.2 to 2	O=C(O)CCc1ccc(OCc2cccc(SCC3CC3)n2)cc1F [Example 179]
0.2 to 2	O=C(O)CCc1ccc(OCc2cccnc2SC2CCC2)cc1 [Example 180]
< 0.2	O=C(O)CCc1ccc(OCc2cccc(SC3CCC3)n2)cc1 [Example 181]
< 0.2	O=C(O)CCc1ccc(OCc2cccnc2SCC2CC2)cc1 [Example 182]
0.2 to 2	O=C(O)CCc1ccc(OCc2cccc(SCC3CC3)n2)cc1 [Example 183]
0.2 to 2	Cc1ccc(COc2ccc(CCC(=O)O)cc2)c(SC2CCCC2)n1 [Example 184]

More lines, now with the values behind:

SMILES	EC50 [µM]
O=C(O)C1CC1c1ccc(OCc2cccc(SCC3CC3)n2)c(F)c1 (stereo not shown) [Example 170, 2-[4-(6-cyclopropylmethylsulfanyl-pyridin-2-ylmethoxy)-3-fluoro-phenyl]-cyclopropane carboxylic acid]	< 0.2
O=C(O)CCc1ccc(NCc2cccnc2SC2CCCC2)cc1 [Example 171, 3-{4-[(2-cyclopentylsulfanyl-pyridin-3-ylmethyl)-amino]-phenyl]-propionic acid]	0.2 to 2
O=C(O)CCc1ccc(NCc2cccc(SC3CCCC3)n2)cc1 [Example 172, 3-{4-[(6-cyclopentylsulfanyl-pyridin-2-ylmethyl)-amino]-phenyl]-propionic acid]	2 to 20
O=C(O)CCc1ccc(OCc2cccnc2SC2CCCC2)cc1F [Example 173]	< 0.2
O=C(O)C1CC1c1ccc(OCc2cccnc2SC2CCCC2)cc1F (stereo not shown) [Example 174]	0.2 to 2
O=C(O)CCc1ccc(OCc2cccnc2SC2CCC2)cc1F [Example 175]	0.2 to 2
O=C(O)CCc1ccc(OCc2cccc(SC3CCCC3)n2)cc1F [Example 177]	0.2 to 2

Same assay, conditions: CHO-K1 cells expressing Ga16 and hGPR120; Calcium 5 dye fluorescence; numeric value

EC50 [µM]	SMILES
0.176	O=C(O)CCc1ccc(OCc2cccc(SC3CCC3)n2)cc1F [Example 176]
0.441	Cc1ccc(COc2ccc(CCC(=O)O)cc2)c(SC(C)C)n1 [Example 185]

— US9447044B2, “Thioaryl derivatives as GPR120 agonists” (LG LIFE SCIENCES LTD., priority 2012, dated 2016)
